The test system of data set [1] is CA1 and CA3 regions of the kindled hippocampus. The data set can be described thus: Fluorojade histofluorescence analysis of cell death after laser-induced PDT. The note with it: 24 hours after laser-induced PDT of ALA-treated animals. Type of data set: in vivo, rat. On the procedure:
The Wilson laboratory at the University of Toronto has previously measured apoptotic cell death at 24 hours following PDT and our Fluorojade results are consistent with their findings. Lilge et al. (2000) have shown that necrotic and apoptotic cell death are a function of the laser exposure (a variable easy to control) and not extent of ALA uptake or conversion.
Fluorojade (Histo-Chem, Inc) staining will be carried out on 20 micron cryostat-prepared brain sections. Tissue sections are mounted onto gelatinized slides and allowed to dry at room temp. Using a staining rack, slides are immersed in 100% EtOH (3 min), in 70% EtOH (1 min), in distilled water (1 min), and then in 0.06% solution of potassium permanganate (15 min, shaking gently). Slides are rinsed in distilled water, and then immersed in a 0.001% Fluoro-Jade solution (away from light, 30 min, shaking gently) following steps carried out in dim light). Still in dim light, slides are then rinsed, dried, dehydrated (xylene), and coverslipped. Stained slides, viewed with a fluorescence microscope (FITC filter), reveal apoptotic cells as brightly green.

The next data set has as its system hippocampal cells. Briefly: PpIX fluorescence in brain sections after ALA infusion (fluorescence microscopy, Texas Red filter). The note with it: 400 mg/Kg IV, 4 hours.
For data set [2], the system named is kindled rats. The data set can be described thus: Beam walk test to assess paresis after photodynamic therapy. The note with it: animals completing the photodynamic therapy protocol, compared to historic controls. It is filed as in vivo, rat. An excerpt: (§1) In our study, animals completing the photodynamic therapy protocol recovered from surgery and underwent behavioral testing using the beam walk test to assess paresis and the Morris Water Maze to assess hippocampus related learning.

The conditions of data set [3]: cited from earlier work.
Data set [4] has as its system kindled rats. Briefly: Resumed daily kindling stimulations after PDT (seizure activity, after discharges). It is filed as in vivo, rat. The note with it: PDT animals, over 1 week of daily stimulation.
Text: We have assessed this therapy in kindled rats. Kindling is a well characterized and reproducible model for reflecting epileptogensis, the process by which a normal brain region becomes an epileptic focus. Animals are kindled with an electrode implanted into the perforant path region of the brain. Each day the animals receive a small stimulus. Initially no seizure activity is induced, but over two or three weeks, this same low level of stimulation generates increasing seizure activity until an animal has 3 consecutive tonic clonic (Stage 5) seizures. Once fully kindled, animals retain this seizure sensitivity even if not stimulated for days or months.
as §1

Data set [5] has as its system rat model of epilepsy (kindled rats). The data set can be described thus: Incline Plane test (motor/grip strength) after photodynamic therapy. Type of data set: in vivo, Sprague-Dawley rats. The note with it: ALA 400 mg/Kg IV, 635 nm laser 10 min, vs control groups, F(3,27)=1.616, p=0.209 between groups.
Procedure: To assess behavioral outcome, thirty-one Sprague-Dawley rats were placed into four groups to test the effects of PDT treatment parameters. All animals underwent a behavioral battery that included the Morris Water Maze (MWM), selected to assess one aspect of hippocampal function, spatial learning and memory and incline plane (IP) to screen for motor injury. […] ALA (400 mg/Kg) was injected intravenously through a femoral vein catheter. […] Four hours post drug administration animals were anesthetized and stereotactically positioned. […] A 4 mm diameter was created and a laser was positioned 2.3 mm from the surface of the brain. […] Laser light was focused on the brain for 10 minutes at a wavelength of 635 nanometers. […] This test was selected because it can evaluate bilateral grip strength and we used this test to screen for any motor and/or coordination deficiencies resulting for the surgical craniectomy or laser effect on the cortex. […] Any sign of hemiparesis may indicate undesired cortical injury. […] This test involves the initial placement of the animal at a 65 degree angle to the horizontal. The flat plane can move up or down at intervals of 5 degrees, until they are at an angle where they can hold their position without sliding down. Then the opposite side is tested. Animals are evaluated on this task on days 1-4 before going on to the MWM.
The subject of data set [6] is kindled rats. Briefly: Morris Water Maze after photodynamic therapy, compared to historic controls. It is filed as in vivo, rat. The note with it: animals completing the photodynamic therapy protocol.
Text: as §1

Data set [7] deals with rat model of epilepsy (kindled rats). The data set can be described thus: Morris Water Maze (spatial learning and memory) after photodynamic therapy. Type of data set: in vivo, Sprague-Dawley rats. The note with it: ALA 400 mg/Kg IV, 635 nm laser 10 min at 4 h, vs control animals, F(3,27)=0.920, p=0.445 between groups.
Text: To assess behavioral outcome, thirty-one Sprague-Dawley rats were placed into four groups to test the effects of PDT treatment parameters. All animals underwent a behavioral battery that included the Morris Water Maze (MWM), selected to assess one aspect of hippocampal function, spatial learning and memory and incline plane (IP) to screen for motor injury. […] Male Sprague-Dawley rats (275 g) had bipolar stimulating electrodes stereotactically implanted under surgical anesthesia at 7.4 mm posterior to Bregma and 4.1 lateral to the midline through a 1.5 mm craniotomy. […] ALA (400 mg/Kg) was injected intravenously through a femoral vein catheter. […] Four hours post drug administration animals were anesthetized and stereotactically positioned. […] A 4 mm diameter was created and a laser was positioned 2.3 mm from the surface of the brain. […] Laser light was focused on the brain for 10 minutes at a wavelength of 635 nanometers. […] All animals participated in the MWM test which was conducted over 5 consecutive days.

Consider `NCC(=O)CCC(=O)O` [ALA, 5-aminolevulinic acid], for which the “cell death (Fluorojade histofluorescence)” value in data set [1] is “selective cell death in the CA1 and CA3 regions of the kindled hippocampus”. Also, in the data set with hippocampal cells (fully kindled rats with elicited seizures vs fully kindled rats without elicited seizures and implanted controls, preliminary data), the “ALA uptake in hippocampal cells (PpIX fluorescence)” value is on record as “greater ALA uptake in hippocampal cells”. Moreover, the PpIX fluorescence entry in the data set with hippocampal cells (kindled rats without elicited seizures vs implanted controls, initial results) is reported as “more fluorescence than implanted controls”. In addition, the “hemiparesis (beam walk test)” value in the data set with kindled rats [2] is “no hemiparesis”. The blood-brain barrier passage result in data set [3] (evidenced by increased PpIX concentrations in normal brain tissue after ALA administration (Hebeda, K., 1995)) is “can cross the blood-brain barrier”. Also, the “time point of maximal uptake of ALA into brain tissue” value in data set [3] (following the ALA injection (Lilge, L., et al. 2000)) is listed as “four”. Also, the “seizure activity / after discharges on resumed kindling stimulation” value in the data set on kindled rats [4] was “no seizure activity or significant after discharges”. The “incline plane assessment (motor performance)” value in data set [5] was “no difference between groups”. In addition, in the data set on kindled rats [6], the “learning impairment (Morris Water Maze)” value is listed as “no hemiparesis or learning impairment”. In addition, the “performance on the MWM task” value in data set [7] is “no significant differences”.
